From patent publication US4435417A, “Antiinflammatory 3H-naphtho[1,2-d]imidazoles” (Gruppo Lepetit S.p.A., priority 1982, dated 1984)

Columns and labels:
[1] = in vivo; settings: mouse, po
Experimental: The toxicities were determined according to Lichtfield and Wilcoxon, Journ. Pharm.

[2] = tested on: carrageenin-induced edema in the rat paw; assay: Carrageenin-induced edema of the rat paw (Winter et al.); assay type: in vivo; settings: po, read-out: Percent inhibition of the carrageenin-induced edema; for inhibition in vivo at 20 mg/kg: 20 mg/kg os; for inhibition in vivo at 50 mg/kg: 50 mg/kg os; for inhibition in vivo at 100 mg/kg: 100 mg/kg os; for inhibition in vivo at 200 mg/kg: 200 mg/kg os
[3] = tested on: granuloma formed on a cotton pellet implanted subcutaneously in rats; assay: Cotton pellet granuloma test in rats (Meier et al.); settings: Rattus norvegicus, po, read-out: Percent inhibition of the granuloma pellet
[4] = tested on: adjuvant induced arthritis in rats; assay: Adjuvant induced arthritis test in rats (Newbold); assay type: in vivo, rat; settings: rats p.o.
Experimental: In still another some of the compounds were tested in the adjuvant induced arthritis test in rats.
This test which was performed as described by B. B. Newbold in Bri. Journ. Pharmacol., 21, 127, (1963), is absolutely meaningful, because adjuvant arthritis is one of the best pharmacological tool with which a pharmacologist can investigate compounds as to their possible antiinflammatory activity, owing to the fact that this experimental model of chronic inflammation looks closer like to the conditions of rheumatoid arthritis of the human pathology (see Pearson, C. M., Arthritis and allied conditions, page 119, Lea and Febiger Publ. 1967 and Pearson C. M., J. Chronic Diseases, 16, 863 (1963).
. The measure of effectiveness of the compounds in this test is given by their ability in reducing the volume of the hind paws of the rats.

| Compound | LD50 [1] [mg/kg] | inhibition in vivo at 20 mg/kg [2] [%] | inhibition in vivo at 50 mg/kg [2] [%] | inhibition in vivo at 100 mg/kg [2] [%] | inhibition in vivo at 100 mg/kg [3] [%] | inhibition in vivo at 200 mg/kg [2] [%] | inhibition in vivo at 200 mg/kg [3] [%] | % Reduction of the volume of the hind paws over the control ([4]; 200 mg/kg) [%] | % Reduction of the volume of the hind paws over the control ([4]; 100 mg/kg) [%] |
| --- | --- | --- | --- | --- | --- | --- | --- | --- | --- |
| CNc1ccc(-c2nc3c4ccccc4ccc3n2C)cc1 [Example 7, N-methyl-4-(3-methyl-3H-naphtho[1,2-d]imidazol-2-yl)benzenamine] | 500 | 29 | 37 | 47 | 33 | – | – | – | – |
| Cn1c(-c2ccccc2)nc2c3ccccc3ccc21 [Example 1, 3-methyl-2-phenyl-3H-naphtho[1,2-d]imidazole] | 1000 | – | 24 | 37 | – | 42 | 24 | – | – |
| CCn1c(-c2ccc(OC)cc2)nc2c3ccccc3ccc21 [Example 15, 3-ethyl-2-(4-methoxyphenyl)-3H-naphtho[1,2-d]imidazole] | > 1000 | 31 | 45 | 49 | – | 52 | 31 | – | – |
| CCOc1ccc(-c2nc3c4ccccc4ccc3n2C)cc1 [Example 2, 3-methyl-2-(4-ethoxyphenyl)-3H-naphtho[1,2-d]imidazole] | > 1000 | – | 21 | 37 | – | 45 | 40 | – | – |
| COc1ccc(-c2nc3c4ccccc4ccc3n2C)cc1 [Example 3, 2-(4-methoxyphenyl)-3-methyl-3H-naphtho[1,2-d]imidazole] | ~1000 | – | 34 | 41 | 40 | – | – | 33 | – |
| COc1ccc(-c2nc3c4ccccc4ccc3n2C(C)C)cc1 [Example 9, 3-(1-methylethyl)-2-(4-methoxyphenyl)-3H-naphth[1,2-d]imidazole] | – | – | 32 | 45 | – | 48 | 45 | 53 | – |
| CN(C)c1ccc(-c2nc3c4ccccc4ccc3n2C)cc1 [Example 4, N,N-dimethyl-4-(3-methyl-3H-naphtho[1,2-d]imidazol-2-yl) benzenamine] | 500 | 32 | 46 | 54 | 24 | – | – | – | – |
| Cc1cc(-c2nc3c4ccccc4ccc3n2C)ccc1N(C)C [Example 5, 4-(3-methyl-3H-naphtho[1,2-d]imidazol-2-yl)-2,N,N-trimethylbenzenamine] | 500 | 35 | 50 | 64 | 38 | – | – | – | 42 |
